Some test systems named below: CCRF-CEM leukemia; HOP-92 NSCLC; K-562 leukemia; KM12 colon; NCI-H460 lung; NCI-H522 lung; SK-OV-3 ovarian; SNB-19 CNS; TK-10 renal.
Assay in all cases: NCI-60 cell line screen, 48 h

Data on 24 compounds can be found in PubChem BioAssay (NCI).

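48-hour exposure; five concentrations; linearly interpolated endpoints. Here, GI50 denotes the concentration required for 50% inhibition of growth. TGI is the concentration that stops growth completely.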

As to `COc1cc2c(Cc3cc(OCc4ccccc4)ccc3N)nccc2c(OC)c1OC`, the TGI with CCRF-CEM leukemia, in the assay with HOP-92 NSCLC, with K-562 leukemia, in the assay on KM12 colon, with NCI-H460 lung and with NCI-H522 lung was above 10 µM throughout. The TGI in the assay with SK-OV-3 ovarian, in the assay on SNB-19 CNS and in the assay on TK-10 renal was above 10 µM in each case.

Turning to `CC1=C(C(=O)Nc2ccccc2C)C(c2ccccc2C)C(C(=O)Nc2ccccc2C)=C(C)N1`, the TGI with HOP-92 NSCLC is 29.4 µM; in the assay on K-562 leukemia, 69.3 µM; in the assay on KM12 colon, 37.8 µM; in the assay on NCI-H460 lung, 53.9 µM; in the assay on NCI-H522 lung, 29.9 µM; in the assay on SNB-19 CNS it was 56.9 µM. The compound also registered a TGI with TK-10 renal of 64.4 µM.

Consider `COC(=O)C1C(/C=C/c2ccoc2)ON2CCC[C@@H]12` (stereo partly specified), for which the TGI with HOP-92 NSCLC, in the assay on KM12 colon, with NCI-H460 lung, with NCI-H522 lung, in the assay on SNB-19 CNS and with TK-10 renal was above 100 µM each time.

In the case of `O=c1[nH]cnc2c1ncn2CCCCO`, the TGI in the assay with CCRF-CEM leukemia, in the assay with HOP-92 NSCLC, in the assay with K-562 leukemia, in the assay on KM12 colon, with NCI-H460 lung and with SNB-19 CNS was above 100 µM throughout. In addition, in the assay with TK-10 renal, the TGI was above 100 µM.

On to `NS(=O)(=O)c1ccc(NC(=O)c2cccc3c(Nc4ccc(S(N)(=O)=O)cc4)c4ccccc4nc23)cc1`, for which the TGI was 87.6 µM in the assay on CCRF-CEM leukemia; above 100 µM with HOP-92 NSCLC; 82.1 µM in the assay with K-562 leukemia; 25.6 µM in the assay with KM12 colon; above 100 µM in the assay on NCI-H460 lung; 49.9 µM in the assay on NCI-H522 lung. For the same compound, the TGI with SK-OV-3 ovarian, with SNB-19 CNS and with TK-10 renal was above 100 µM each time.

As for `O=S(=O)(N/N=C/c1ccc(Cl)cc1Cl)c1ccccc1`, the TGI is above 100 µM in the assay on CCRF-CEM leukemia; 94.9 µM in the assay on HOP-92 NSCLC; above 100 µM in the assay on K-562 leukemia; above 100 µM in the assay with KM12 colon; above 100 µM in the assay with SK-OV-3 ovarian; above 100 µM in the assay with TK-10 renal.

Consider `COc1ccc(/C=N\O[Si](C)(C)C(C)(C)C)cc1O[Si](C)(C)C(C)(C)C`, for which the TGI amounted to 48 µM in the assay with CCRF-CEM leukemia; 37.6 µM with HOP-92 NSCLC; 37.2 µM in the assay on K-562 leukemia; 32.7 µM with KM12 colon; 46.3 µM with NCI-H460 lung; 46.5 µM with SK-OV-3 ovarian. The TGI with SNB-19 CNS amounted to 33.3 µM; in the assay on TK-10 renal, 36.3 µM.

As for `O=C(CN1C(=O)S/C(=C\C(Cl)=C\c2ccccc2)C1=O)NCCCn1ccnc1`, the GI50 in the assay on HOP-92 NSCLC was 1.76 µM; in the assay with K-562 leukemia, 2.17 µM; in the assay on KM12 colon it was 1.95 µM; with NCI-H460 lung, 2.21 µM; in the assay on NCI-H522 lung, 2.02 µM; with SK-OV-3 ovarian, 5.23 µM. For the same compound, the values for the GI50 in the assay on SNB-19 CNS and in the assay with TK-10 renal were 3.14 µM and 2.3 µM, respectively. Further, the TGI in the assay on HOP-92 NSCLC is 4.46 µM; with K-562 leukemia, above 100 µM; in the assay on KM12 colon, 4.22 µM; in the assay with NCI-H460 lung it was 6.44 µM; with NCI-H522 lung it was 5.15 µM; in the assay with SK-OV-3 ovarian, above 100 µM. The TGI in the assay on SNB-19 CNS turned out to be 13 µM; in the assay with TK-10 renal it was 4.53 µM.

As for `Cc1cccc(N=C2NC(=O)C(CC(=O)Nc3ccccc3Cl)S2)c1` (stereo unspecified), the TGI in the assay with CCRF-CEM leukemia, in the assay on HOP-92 NSCLC, in the assay on K-562 leukemia, with NCI-H460 lung, in the assay with SNB-19 CNS and with TK-10 renal was above 100 µM in each case.

With `NNC(=S)N/N=C(/C(=O)Nc1ccc([N+](=O)[O-])cc1)c1nc2ccc([N+](=O)[O-])cc2[nH]c1=O`, the TGI with CCRF-CEM leukemia, with HOP-92 NSCLC, in the assay with K-562 leukemia, in the assay on KM12 colon, in the assay with NCI-H460 lung and in the assay on NCI-H522 lung was above 100 µM each time. Besides, the TGI in the assay with SK-OV-3 ovarian and in the assay on TK-10 renal was above 100 µM in each case.

For `COc1ccc(/C(C#N)=C(/N)SCc2ccccc2Cl)cc1`, the TGI is above 100 µM in the assay with CCRF-CEM leukemia; 34.5 µM in the assay with HOP-92 NSCLC; 49.5 µM with K-562 leukemia; above 10 µM in the assay on KM12 colon; 27.4 µM in the assay with NCI-H522 lung; 86.9 µM in the assay on SK-OV-3 ovarian. Further, the TGI in the assay with SNB-19 CNS was above 10 µM; with TK-10 renal it was 94.7 µM.

Turning to `CCSC(=O)C1(C)OC2CCCCC2C1=O` (stereo unspecified), the TGI in the assay with CCRF-CEM leukemia, in the assay with K-562 leukemia, in the assay on KM12 colon, in the assay with NCI-H460 lung, in the assay on NCI-H522 lung and with SK-OV-3 ovarian was above 100 µM throughout. In addition, the TGI with SNB-19 CNS and with TK-10 renal was above 100 µM throughout.

As to `[O-][n+]1c2cc(CN3CCOCC3)c(CN3CCOCC3)cc2[n+]([O-])c2c(O)cccc21`, the TGI was 4.02 µM in the assay on CCRF-CEM leukemia; 10.4 µM with HOP-92 NSCLC; 8.55 µM with KM12 colon; 4.5 µM in the assay with NCI-H460 lung; 6.23 µM in the assay on NCI-H522 lung; 13.5 µM in the assay on SK-OV-3 ovarian. The TGI in the assay on SNB-19 CNS is above 40.8 µM; with TK-10 renal it was above 42 µM.

`CCCCCCCCCCCCCCCCCc1nnc(N)o1`: the TGI with HOP-92 NSCLC, with K-562 leukemia, in the assay on KM12 colon, in the assay with NCI-H460 lung, with NCI-H522 lung and in the assay on SK-OV-3 ovarian was above 100 µM in each case. The TGI with SNB-19 CNS and in the assay with TK-10 renal was above 100 µM each time.

With `OC1c2ccccc2C2C(O)c3ccccc3C12` (stereo unspecified), the TGI in the assay on CCRF-CEM leukemia, with HOP-92 NSCLC, in the assay on K-562 leukemia, in the assay on KM12 colon, with NCI-H460 lung and with NCI-H522 lung was above 100 µM in each case. Further, the TGI in the assay with SK-OV-3 ovarian and in the assay with TK-10 renal was above 100 µM each time.

As to `Nc1ccc(C2=Nc3ccccc3SC(c3ccccc3O)C2)cc1` (stereo unspecified), the TGI with CCRF-CEM leukemia was 32.5 µM; with K-562 leukemia it was 51.6 µM; in the assay on KM12 colon, above 100 µM; with NCI-H460 lung, above 100 µM; in the assay with NCI-H522 lung it was 64.9 µM; with SK-OV-3 ovarian it was above 100 µM. In addition, the TGI in the assay with SNB-19 CNS and in the assay on TK-10 renal was above 100 µM each time.

On to `O=C1NN=CN2C(=O)CCC12` (stereo unspecified), for which the TGI in the assay with CCRF-CEM leukemia, in the assay on HOP-92 NSCLC, in the assay with K-562 leukemia, with KM12 colon, in the assay with NCI-H460 lung and with SK-OV-3 ovarian was above 100 µM throughout. Also, the TGI in the assay with SNB-19 CNS and in the assay with TK-10 renal was above 100 µM in each case.

Turning to `O=c1[nH]c2c(c3ccccc13)CCc1ccccc1-2`, the TGI in the assay with K-562 leukemia, with KM12 colon, with NCI-H522 lung, in the assay on SK-OV-3 ovarian, in the assay with SNB-19 CNS and in the assay with TK-10 renal was above 100 µM in each case.

As to `COc1cc(/C=C\c2ccc(Cl)cc2)cc(OC)c1OC`, the TGI is 3.96 µM in the assay on CCRF-CEM leukemia; above 44.2 µM in the assay with K-562 leukemia; above 100 µM in the assay with KM12 colon; above 100 µM in the assay with NCI-H460 lung; 0.355 µM in the assay on NCI-H522 lung; 89.3 µM in the assay on SK-OV-3 ovarian. The TGI in the assay with SNB-19 CNS and in the assay on TK-10 renal was above 100 µM each time.

With `COc1ccc2c(c1OC)C(=O)O[C@@H]2[C@H]1c2c(c(Br)c3c(c2OC)OCO3)CCN1C`, the GI50 with HOP-92 NSCLC was 21.7 µM; with K-562 leukemia, 2.73 µM; in the assay on KM12 colon, 4.49 µM; in the assay with NCI-H460 lung, 3.6 µM; in the assay on NCI-H522 lung it was 6.78 µM; with SK-OV-3 ovarian, above 100 µM. In addition, the GI50 in the assay with SNB-19 CNS was 75.9 µM; in the assay on TK-10 renal, 14.4 µM. In addition, the TGI with HOP-92 NSCLC, in the assay on K-562 leukemia, in the assay with KM12 colon, in the assay with NCI-H460 lung, in the assay with NCI-H522 lung and with SK-OV-3 ovarian was above 100 µM each time. For the same compound, the TGI in the assay on SNB-19 CNS was above 100 µM; in the assay with TK-10 renal, 94.5 µM.

For `CC1CC(=O)c2c(ccc3c2C(=O)c2cccc(O)c2C3=O)C1` (stereo unspecified), the TGI in the assay with CCRF-CEM leukemia is 7.97 µM; with HOP-92 NSCLC, 13.1 µM; in the assay with K-562 leukemia, 10.6 µM; with KM12 colon, 26.7 µM; with NCI-H460 lung, 19.5 µM; in the assay with NCI-H522 lung, 12.7 µM. In addition, the TGI in the assay on SK-OV-3 ovarian was 57.2 µM; with SNB-19 CNS it was 26.1 µM.

In the case of `NC(=O)N/N=C(\CCC(=O)N(Cc1ccccc1)Cc1ccccc1)CC(=O)c1ccc(F)cc1`, the TGI with CCRF-CEM leukemia, in the assay on K-562 leukemia, in the assay on KM12 colon, in the assay with NCI-H460 lung, in the assay with SK-OV-3 ovarian and in the assay with SNB-19 CNS was above 100 µM in each case. Further, in the assay on TK-10 renal, the TGI is above 100 µM.

On to `N#CC(C(=O)CCC(=O)Nc1ccc(Cl)c(Cl)c1)c1ccc(Cl)cc1` (stereo unspecified), for which the TGI with HOP-92 NSCLC is above 100 µM; in the assay on K-562 leukemia it was 90.5 µM; with KM12 colon, above 100 µM; in the assay on NCI-H460 lung, above 100 µM; in the assay with SNB-19 CNS, above 100 µM; in the assay on TK-10 renal, above 100 µM.

`CC(=O)O[C@H]1CC[C@@]2(C)C(=C/C(=N\[N+](=O)[O-])[C@H]3C4CCC([C@H](C)CCCC(C)C)[C@@]4(C)CCC32)C1` (stereo partly specified): the TGI with HOP-92 NSCLC, with K-562 leukemia, in the assay on NCI-H460 lung, with NCI-H522 lung, in the assay with SK-OV-3 ovarian and with SNB-19 CNS was above 100 µM in each case. The TGI in the assay with TK-10 renal was above 100 µM.
